“And” between values parts separate entries of the source, which are not always exact repeats. Equal entries are not always repeated.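 Cultured in 96-well plates, cells were exposed to test compound for 48 hours across five concentrations. TGI is the concentration that stops growth completely.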
Tests used:
Experiment in all cases: NCI tumour cell line growth inhibition, 48 h
786-0 renal = system: 786-0 renal
MDA-MB-231 breast = system: MDA-MB-231 breast
SR leukemia = system: SR leukemia
DLD-1 colon = system: DLD-1 colon
DMS 114 small cell lung = system: DMS 114 small cell lung
DMS 273 small cell lung = system: DMS 273 small cell lung
HOP-18 NSCLC = system: HOP-18 NSCLC
KM20L2 colon = system: KM20L2 colon
M19-MEL melanoma = system: M19-MEL melanoma
RXF-631 renal = system: RXF-631 renal
SNB-78 CNS = system: SNB-78 CNS
XF 498 CNS = system: XF 498 CNS
P388 leukemia = system: P388 leukemia
P388/ADR leukemia = system: P388/ADR leukemia
SN12K1 renal = system: SN12K1 renal
LXFL 529 NSCLC = system: LXFL 529 NSCLC

SMILES	TGI (786-0 renal) [µM]	TGI (MDA-MB-231 breast)	TGI (SR leukemia) [µM]	further results
CCCCCCC(=O)OC[n+]1ccc(-c2c(COC(=O)NC(C)C)c(COC(=O)NC(C)C)c3n2CCC3)cc1	> 100	> 100 µM	50.9	–
O=C(c1ccccc1)c1ccc(N2C(=O)/C(=C/c3cccc(Oc4ccccc4)c3)N=C2c2ccccc2)c(N2C(=O)/C(=C/c3cccc(Oc4ccccc4)c3)N=C2c2ccccc2)c1	> 100	> 100 µM	–	–
COc1nc(=O)[nH]c2c1C(c1ccc([N+](=O)[O-])cc1)c1c(OC)nc(=O)[nH]c1O2	> 100	> 100 µM	–	–
CC(C)=CCC/C(C)=C/Cc1c2c(c3oc(-c4ccc(O)c(O)c4)c(O)c(=O)c3c1O)C=CC(C)(C)O2	7.92	14.5 µM	6.94	–
O=C(O)C1=C(CO)Oc2cc3c(cc2C1c1ccc2c(c1)OCO2)OCO3 (centres undefined)	–	–	–	TGI (DLD-1 colon): > 100 µM; TGI (DMS 114 small cell lung): > 100 µM; TGI (DMS 273 small cell lung): > 100 µM; TGI (HOP-18 NSCLC): > 100 µM; TGI (KM20L2 colon): > 100 µM; TGI (M19-MEL melanoma): > 100 µM; TGI (RXF-631 renal): > 100 µM; TGI (SNB-78 CNS): > 100 µM; TGI (XF 498 CNS): > 100 µM
CCCCC(CC)C(=O)Oc1ccc(C(=O)c2ccccc2)c(O)c1 (centres undefined)	–	> 100 µM	–	–
CCn1c2ccccc2c2ccc(C3C4C(=O)N(c5cccc6ccccc56)C(=O)C4ON3C(C(N)=O)c3ccccc3)cc21 (centres undefined)	> 25	> 25 µM	> 25	–
NC1=NC(c2ccc(Cl)cc2)=CC(c2cccc(Cl)c2)S1 (centres undefined)	> 100	–	72.5	–
Cc1ccc(C(=O)NC2C(=O)NC(C(C)C)C(=O)N3CCCC3C(=O)N(C)CC(=O)N(C)C(C(C)C)C(=O)OC2C)c2c1Oc1c(c(C(=O)NC3C(=O)NC(C(C)C)C(=O)N4CCCC4C(=O)N(C)CC(=O)N(C)C(C(C)C)C(=O)OC3C)c3nc(-c4ccccc4)c(=O)oc3c1C)N2 (centres undefined)	–	0.221 µM and 0.129 µM	–	–
CCOC(=O)N1c2ccccc2N(C(=O)OCC)C1CC(=O)/C=C/c1ccccc1	10.6	> 100 µM	5.75	–
CC1CC(C)(O)C2C3(C)CCCC2(COC3=O)C12CCC1(CCOC1=O)O2 (centres undefined)	–	–	–	TGI (DLD-1 colon): > 250 µM; TGI (DMS 114 small cell lung): > 250 µM; TGI (DMS 273 small cell lung): > 250 µM; TGI (HOP-18 NSCLC): > 250 µM; TGI (KM20L2 colon): > 250 µM; TGI (M19-MEL melanoma): > 250 µM; TGI (P388 leukemia): > 250 µM; TGI (P388/ADR leukemia): > 116 µM; TGI (SN12K1 renal): > 250 µM; TGI (SNB-78 CNS): > 250 µM; TGI (XF 498 CNS): > 39.6 µM
COC(=O)[C@]12CC[C@H]3CN(S(=O)(=O)c4ccc(C)cc4)[C@H]([C@H]31)[C@H](c1ccco1)N2S(=O)(=O)c1ccc(C)cc1	> 100	> 100 µM	> 100	–
CCOC(=O)C(C(=O)OCC)c1cc(-c2cc3ccccc3o2)oc(=O)c1C#N	–	–	66.3	TGI (DMS 114 small cell lung): 67.1 µM; TGI (DMS 273 small cell lung): 60.1 µM; TGI (HOP-18 NSCLC): 65.4 µM; TGI (KM20L2 colon): 37.5 µM; TGI (LXFL 529 NSCLC): 41.8 µM; TGI (SNB-78 CNS): 73.4 µM; TGI (XF 498 CNS): 36.3 µM
CCCCC/C=C\C=C\CCCCCCCCC(=O)OC	> 100	> 100 µM	> 100	–
Nc1[nH]c(=O)nc2c1cnn2COCCO	–	–	> 100	TGI (DLD-1 colon): > 100 µM; TGI (DMS 114 small cell lung): > 100 µM; TGI (DMS 273 small cell lung): > 100 µM; TGI (HOP-18 NSCLC): > 100 µM; TGI (KM20L2 colon): 6.85 µM; TGI (LXFL 529 NSCLC): > 100 µM; TGI (SNB-78 CNS): > 100 µM; TGI (XF 498 CNS): > 100 µM
C/C(=C\[Si](C)(C)c1ccco1)C(C)(O)[C@H](C)O (some centres undefined)	> 100	> 100 µM	> 100	–
CC(C)CC(N)C(=O)NC(CNC(CCC(N)=O)C(=O)NC(CC(C)C)C(=O)NC(CC(C)C)C(=O)O)Cc1ccc2ccccc2c1 (centres undefined)	> 10	> 10 µM	> 10	–
CN(C)CCC(=O)[C@@]1(O)CC[C@H]2[C@@H]3CC=C4C[C@@H](O)CC[C@]4(C)[C@H]3CC[C@@]21C	13.6	32.8 µM	39.4	–
CCCCCCCCCCCCCCCCCCN(C)CC(COC)OP(=O)([O-])OCC[N+](C)(C)C (centres undefined)	2.57	–	8.55	TGI (DLD-1 colon): 12.8 µM; TGI (DMS 114 small cell lung): 9.75 µM; TGI (DMS 273 small cell lung): 2.45 µM; TGI (HOP-18 NSCLC): 9.91 µM; TGI (KM20L2 colon): 5.94 µM; TGI (LXFL 529 NSCLC): 7.98 µM; TGI (M19-MEL melanoma): 10.1 µM; TGI (RXF-631 renal): 22 µM; TGI (SNB-78 CNS): 13.4 µM; TGI (XF 498 CNS): 16.8 µM
CC(=O)NC1C(OCc2ccccc2)OC(CO)C(O)C1OCC(=O)NC(C(=O)NC(CCC(=O)NCCCCCC(=O)Nc1ccc2c(c1)CN1C(=O)c3ccccc3C1=N2)C(N)=O)C(C)C (centres undefined)	38	63.3 µM	> 100	–
C/C=C\C1OC1(C)c1cc(=O)c2c(C)cc3c(c2o1)C(=O)c1c(O)c(C2CC(C)(N(C)C)C(OC(C)=O)C(C)O2)cc(C2CC(N(C)C)C(O)C(C)O2)c1C3=O (centres undefined)	0.0158	0.0285 µM	–	–
CC(C)N(CC(=O)O)CC(=O)O	> 100	> 100 µM	> 100	–
Nc1ccc(Oc2ccc(C34CC5C6CC7(c8ccc(Oc9ccc(N)cc9)cc8)CC5C(C3)C(C7)C6C4)cc2)cc1	> 100	> 100 µM	–	–
O=C(c1ccccc1)c1ccc(N2C(=O)/C(=C/c3ccccc3S)N=C2c2ccccc2)c(N2C(=O)/C(=C/c3ccccc3S)N=C2c2ccccc2)c1	> 100	> 100 µM	> 100	–
O=C1c2cc3c(cc2[C@@H]2C(O)[C@H]4O[C@H]4C4CCN1C42)OCO3 (some centres undefined)	–	–	> 37.5	TGI (DMS 114 small cell lung): > 37.5 µM; TGI (DMS 273 small cell lung): > 37.5 µM; TGI (KM20L2 colon): > 37.5 µM; TGI (LXFL 529 NSCLC): > 37.5 µM; TGI (XF 498 CNS): > 37.5 µM
Cc1nn(CNc2ccc(F)c(Cl)c2)c(=S)n1/N=C/c1ccc(-c2ccc(Cl)cc2Cl)o1	29	34.9 µM	14.7	–
C=C1N(C)c2ccc(S(=O)(=O)c3ccc4c(c3)C(C)(C)C(=C)N4C)cc2C1(C)C	> 100	> 100 µM	–	–
O=P1(Oc2ccc(Cl)cc2Cl)Oc2cc3ccccc3cc2O1	–	–	–	TGI (DLD-1 colon): > 100 µM; TGI (DMS 114 small cell lung): > 89.3 µM; TGI (DMS 273 small cell lung): > 100 µM; TGI (HOP-18 NSCLC): > 100 µM; TGI (KM20L2 colon): > 100 µM; TGI (P388 leukemia): 32.6 µM; TGI (P388/ADR leukemia): 64.1 µM; TGI (SN12K1 renal): > 100 µM; TGI (SNB-78 CNS): > 100 µM; TGI (XF 498 CNS): > 100 µM
Cc1csc2nc(-c3cc([N+](=O)[O-])c(Cl)cc3Cl)c(/C=N/N=C(N)N)n12	49.3	28 µM	4.84	–
Nc1ccc(-c2nc3ccccc3s2)cc1CO	> 100	> 100 µM	> 100	–
